In PMC8549260, “Crude extract and isolated bioactive compounds from Notholirion thomsonianum (Royale) Stapf as multitargets antidiabetic agents: in-vitro and molecular docking approaches” (BMC Complementary Medicine and Therapies, 2021):
Like-named read-outs stand apart in the source and are kept apart here.

Assays:
[1] = target: T1, α-amylase (Homo sapiens, UniProt P04746); test: In-vitro α-amylase inhibition; assay type: biochemical; settings: for IC50: Table 3, isolated compounds series
T1 sequence (P04746 16-511): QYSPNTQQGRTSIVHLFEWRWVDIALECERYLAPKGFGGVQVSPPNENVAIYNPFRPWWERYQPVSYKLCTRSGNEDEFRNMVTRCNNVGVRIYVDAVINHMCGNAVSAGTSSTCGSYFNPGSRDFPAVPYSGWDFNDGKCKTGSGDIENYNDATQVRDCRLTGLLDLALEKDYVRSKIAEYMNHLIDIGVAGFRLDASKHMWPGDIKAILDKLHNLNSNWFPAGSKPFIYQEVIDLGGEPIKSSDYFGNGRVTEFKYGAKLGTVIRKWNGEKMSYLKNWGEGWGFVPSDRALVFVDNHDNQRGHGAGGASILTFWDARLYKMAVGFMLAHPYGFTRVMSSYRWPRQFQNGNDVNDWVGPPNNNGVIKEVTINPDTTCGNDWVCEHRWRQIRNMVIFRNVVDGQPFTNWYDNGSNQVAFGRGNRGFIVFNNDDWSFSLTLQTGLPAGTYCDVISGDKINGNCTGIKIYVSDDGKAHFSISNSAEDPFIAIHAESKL
Procedure: The amylase solution was prepared in phosphate buffer followed by addition of different concentrations of plant extracts and isolated compounds. The solutions of test samples in enzyme solution were allowed to react. The solutions were incubated for a specific temperature and were added starch solution. Afterwards, a solution of dinitrosalicylic acid was added to both of the groups, i.e. sample and control solution groups. The solutions were then allowed to heat up in boiling water for a few min. […] The experiments were performed in triplicates and percent inhibitions were calculated as per the reported formula. […]

[2] = target: Yeast α-Glucosidase (Saccharomyces cerevisiae, UniProt P53341); test: biochemical; settings: for IC50: α-Glucosidase IC50, Table 3, isolated compounds series
Chain of Yeast α-Glucosidase (P53341 whole entry): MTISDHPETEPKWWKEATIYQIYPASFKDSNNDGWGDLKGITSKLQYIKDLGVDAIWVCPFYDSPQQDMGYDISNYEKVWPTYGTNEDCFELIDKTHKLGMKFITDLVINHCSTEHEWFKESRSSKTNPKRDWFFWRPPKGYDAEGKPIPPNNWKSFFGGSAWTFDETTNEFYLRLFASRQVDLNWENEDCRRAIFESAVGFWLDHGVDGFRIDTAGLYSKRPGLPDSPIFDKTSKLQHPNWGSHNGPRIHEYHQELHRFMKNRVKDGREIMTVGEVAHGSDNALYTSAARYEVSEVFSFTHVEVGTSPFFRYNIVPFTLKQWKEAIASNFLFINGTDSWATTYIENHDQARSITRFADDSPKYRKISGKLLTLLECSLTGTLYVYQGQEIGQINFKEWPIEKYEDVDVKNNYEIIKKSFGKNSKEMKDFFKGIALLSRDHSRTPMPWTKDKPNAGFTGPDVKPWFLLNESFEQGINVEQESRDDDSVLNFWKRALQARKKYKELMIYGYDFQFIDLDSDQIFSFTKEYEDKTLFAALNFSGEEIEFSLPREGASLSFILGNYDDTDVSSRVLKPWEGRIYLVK
Procedure: In 0.10 M of phosphate buffer having pH of 6.90, the α-glucosidase enzyme solution was prepared (0.50 U/ mL). […] The same solution without the enzyme was used as a blank. The absorbances were recorded at 405 nm. All the experiments were repeated in triplicate. The percent inhibitions and subsequent IC50 (in μg/mL and also in μM) were calculated accordingly. […]

[3] = DPPH free radicals scavenging assay; settings: n = 3
Procedure: Plant samples solutions were prepared ranging from 125 to 1000 μg/ mL and were added to 0.004% methanolic solution of DPPH. Subsequent to 30 min incubation, absorbances were measured at 517 nm.
In free radicals’ assays including DPPH, ABTS and H2O2, the IC50s were calculated using same method.

[4] = target: T2, PTP1B (Homo sapiens, UniProt P18031); test: Protein tyrosine phosphatase 1B inhibition; assay type: biochemical; settings: for inhibition at 125 µg/mL: 125 μg/mL; for inhibition at 125 µg/mL / inhibition at 250 µg/mL / inhibition at 500 µg/mL: n = 3; for inhibition at 125 µg/mL / inhibition at 250 µg/mL: read-out: PTP1B Percent Inhibition (mean ± SEM) (converted); for inhibition at 250 µg/mL: 250 μg/mL; for inhibition at 500 µg/mL: 500 μg/mL, read-out: PTP1B Percent Inhibition (mean ± SEM)
T2 sequence (P18031 1-435): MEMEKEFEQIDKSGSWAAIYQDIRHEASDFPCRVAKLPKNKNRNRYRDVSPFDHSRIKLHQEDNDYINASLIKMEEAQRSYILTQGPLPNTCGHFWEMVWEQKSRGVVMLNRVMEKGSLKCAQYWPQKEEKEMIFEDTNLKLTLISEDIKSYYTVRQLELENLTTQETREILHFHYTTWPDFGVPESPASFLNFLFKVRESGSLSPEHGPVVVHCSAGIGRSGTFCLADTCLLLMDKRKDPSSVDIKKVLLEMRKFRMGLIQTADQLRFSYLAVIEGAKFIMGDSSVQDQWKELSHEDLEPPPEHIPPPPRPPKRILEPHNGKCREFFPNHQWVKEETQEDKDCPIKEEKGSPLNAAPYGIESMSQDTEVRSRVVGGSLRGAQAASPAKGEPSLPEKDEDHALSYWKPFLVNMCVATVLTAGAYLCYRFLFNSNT
Procedure: The solutions were then incubated for 40 min at 27 °C and absorbances were recorded at 405 nm using microplate reader. The experiments were repeated three times and percent inhibitions followed by IC50 values were recorded accordingly.

[5] = read-out: Alpha amylase Percent Inhibition (mean ± SEM)
[6] = read-out: α-Amylase Percent Inhibition (mean ± SEM)
[7] = read-out: Alpha glucosidase Percent Inhibition (mean ± SEM)
[8] = read-out: α-Glucosidase Percent Inhibition (mean ± SEM)
[9] = Table 3, 125 μg/mL, n = 3, read-out: α-Amylase Percent Inhibition (mean ± SEM) (converted)
[10] = Table 3, 250 μg/mL, n = 3, read-out: α-Amylase Percent Inhibition (mean ± SEM) (converted)
[11] = Table 3, 500 μg/mL, n = 3, read-out: α-Amylase Percent Inhibition (mean ± SEM)

| Structure (SMILES) | inhibition at 125 µg/mL [2, 8] | inhibition at 250 µg/mL [2, 8] | inhibition at 500 µg/mL [2, 8] | DPPH Percent Inhibition (mean ± SEM) ([3]; Table 4, 125 μg/mL) | DPPH Percent Inhibition (mean ± SEM) ([3]; Table 4, 250 μg/mL) | DPPH Percent Inhibition (mean ± SEM) ([3]; Table 4, 500 μg/mL) | IC50 [4] | inhibition at 125 µg/mL [4] | inhibition at 250 µg/mL [4] | inhibition at 500 µg/mL [4] | IC50 ([4]; based on molecular weight) | inhibition at 125 µg/mL [1, 9] | inhibition at 250 µg/mL [1, 10] | inhibition at 500 µg/mL [1, 11] | IC50 [1] | IC50 ([1]; based on molecular weight) | further results |
| --- | --- | --- | --- | --- | --- | --- | --- | --- | --- | --- | --- | --- | --- | --- | --- | --- | --- |
| C[C@H]1O[C@H](O[C@H]2[C@H](O)[C@@H](O)[C@@H](O[C@H]3[C@H](O)[C@@H](O)C(O)O[C@@H]3CO)O[C@@H]2CO)[C@H](O)[C@@H](O)[C@@H]1N[C@H]1C=C(CO)[C@@H](O)[C@H](O)[C@H]1O (stereo partly drawn) [Acarbose, reference compound] | 77.6% | 82.4% | 87.08 ± 0.47% |  |  |  |  |  |  |  |  |  |  |  |  |  | inhibition at 125 µg/mL [1, 5]: 64.5%; inhibition at 250 µg/mL [1, 5]: 69%; inhibition at 500 µg/mL [1, 5]: 71.7%; inhibition at 1000 µg/mL [1, 5]: 78.63 ± 0.54%; inhibition at 125 µg/mL [1, 6]: 83.9%; inhibition at 250 µg/mL [1, 6]: 89.5%; inhibition at 500 µg/mL [1, 6]: 95.23 ± 0.22%; inhibition at 125 µg/mL [2, 7]: 61.5%; inhibition at 250 µg/mL [2, 7]: 67.5%; inhibition at 500 µg/mL [2, 7]: 73.9%; inhibition at 1000 µg/mL [2, 7]: 76.87 ± 0.06% |
| Cc1c(C)c2c(c(C)c1O)CCC(C)(CCCC(C)CCCC(C)CCCC(C)C)O2 (stereo not drawn) [Nt03] | 70.6% | 73.4% | 78.35 ± 0.23% | 84.44 ± 0.15% | 87.14 ± 0.49% | 90.69 ± 0.14% | < 72.6 µM | 82.3% | 87.2% | 90.83 ± 0.47% | < 72.7 µM | 80.6% | 86.5% | 93.1 ± 1.04% | < 72.6 µM | < 72.7 µM | IC50 [2]: < 72.6 µM; IC50 ([2]; based on molecular weight): < 72.7 µM |
| CC(C)=CC(=O)CC(C)c1ccc(C)cc1 (stereo not drawn) [Nt01] | 44.4% | 51.9% | 55.6 ± 1.06% | 79.62 ± 0.03% | 84.36 ± 1.15% | 88.35 ± 0.89% | < 144 µM | 83.4% | 88.7% | 90.09 ± 0.32% | < 145 µM | 67.9% | 72.1% | 77.8 ± 2.24% | < 144 µM | < 145 µM |  |
